Common to all, as to test: Kinase selectivity, scanMAX Kinase assay panel (DiscoverX), % control at 1 uM
Holding throughout (type): binding

In experiment [1] the target is T1, scanMAX Kinase assay panel (Homo sapiens, UniProt Q16512).
T1 construct: purchased DiscoverX
The settings on record: PKN1; 1 uM; read-out: Percent Control (%). Put shortly:
(§1)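 1 uM cpd (DMSO) per kinase; % ctrl = [cpd − pos ctrl]/[neg ctrl − pos ctrl] × 100; hit if <35.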

The target of experiment [2] is T2, scanMAX Kinase assay panel (Homo sapiens, UniProt Q05655).
T2 construct: purchased DiscoverX
T2 sequence (Q05655 whole entry): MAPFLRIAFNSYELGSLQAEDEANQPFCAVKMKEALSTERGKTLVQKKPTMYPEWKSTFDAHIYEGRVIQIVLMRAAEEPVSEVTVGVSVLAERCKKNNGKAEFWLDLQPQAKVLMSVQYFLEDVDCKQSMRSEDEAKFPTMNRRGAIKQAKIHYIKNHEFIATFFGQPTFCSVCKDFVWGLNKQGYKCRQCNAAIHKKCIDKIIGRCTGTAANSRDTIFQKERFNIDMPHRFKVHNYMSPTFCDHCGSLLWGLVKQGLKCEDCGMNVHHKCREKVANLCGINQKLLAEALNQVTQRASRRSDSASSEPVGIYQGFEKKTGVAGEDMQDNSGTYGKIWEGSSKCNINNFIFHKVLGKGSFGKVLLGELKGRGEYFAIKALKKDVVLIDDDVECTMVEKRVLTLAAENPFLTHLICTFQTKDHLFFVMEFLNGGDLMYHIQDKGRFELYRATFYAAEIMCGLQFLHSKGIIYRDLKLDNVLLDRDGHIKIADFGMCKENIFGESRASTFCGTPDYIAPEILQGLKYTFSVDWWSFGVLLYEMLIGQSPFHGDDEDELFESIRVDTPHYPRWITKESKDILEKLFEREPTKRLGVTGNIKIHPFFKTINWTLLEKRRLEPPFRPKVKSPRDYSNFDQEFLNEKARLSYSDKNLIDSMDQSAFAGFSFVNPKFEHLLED
The settings on record: PRKCD; 1 uM; read-out: Percent Control (%). Put shortly: as §1

Experiment [3] has as its target T3, scanMAX Kinase assay panel (Homo sapiens, UniProt Q13976).
T3 construct: purchased DiscoverX
T3 sequence (Q13976 1-671): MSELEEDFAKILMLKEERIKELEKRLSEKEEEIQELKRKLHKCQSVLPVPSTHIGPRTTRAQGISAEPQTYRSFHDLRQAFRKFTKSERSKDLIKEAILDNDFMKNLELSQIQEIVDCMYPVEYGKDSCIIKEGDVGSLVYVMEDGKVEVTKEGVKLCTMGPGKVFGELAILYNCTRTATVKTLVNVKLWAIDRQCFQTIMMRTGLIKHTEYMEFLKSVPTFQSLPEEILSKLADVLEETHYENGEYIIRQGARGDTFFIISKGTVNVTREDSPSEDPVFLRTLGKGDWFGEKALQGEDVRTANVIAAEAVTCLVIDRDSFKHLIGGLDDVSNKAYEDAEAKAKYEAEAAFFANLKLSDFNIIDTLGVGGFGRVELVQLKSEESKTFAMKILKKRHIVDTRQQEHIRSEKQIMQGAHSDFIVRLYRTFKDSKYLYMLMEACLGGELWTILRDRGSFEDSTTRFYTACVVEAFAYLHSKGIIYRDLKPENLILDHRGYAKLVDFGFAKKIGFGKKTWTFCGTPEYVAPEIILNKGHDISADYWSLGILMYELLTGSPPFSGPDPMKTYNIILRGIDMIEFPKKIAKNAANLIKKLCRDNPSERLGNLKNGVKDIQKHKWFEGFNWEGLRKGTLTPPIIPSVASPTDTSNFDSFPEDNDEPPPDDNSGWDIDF
The settings on record: PRKG1; 1 uM; read-out: Percent Control (%). Put shortly:
as §1

For experiment [4], the target named is T4, scanMAX Kinase assay panel (Homo sapiens, UniProt Q8N5S9).
T4 construct: purchased DiscoverX
T4 sequence (Q8N5S9 whole entry): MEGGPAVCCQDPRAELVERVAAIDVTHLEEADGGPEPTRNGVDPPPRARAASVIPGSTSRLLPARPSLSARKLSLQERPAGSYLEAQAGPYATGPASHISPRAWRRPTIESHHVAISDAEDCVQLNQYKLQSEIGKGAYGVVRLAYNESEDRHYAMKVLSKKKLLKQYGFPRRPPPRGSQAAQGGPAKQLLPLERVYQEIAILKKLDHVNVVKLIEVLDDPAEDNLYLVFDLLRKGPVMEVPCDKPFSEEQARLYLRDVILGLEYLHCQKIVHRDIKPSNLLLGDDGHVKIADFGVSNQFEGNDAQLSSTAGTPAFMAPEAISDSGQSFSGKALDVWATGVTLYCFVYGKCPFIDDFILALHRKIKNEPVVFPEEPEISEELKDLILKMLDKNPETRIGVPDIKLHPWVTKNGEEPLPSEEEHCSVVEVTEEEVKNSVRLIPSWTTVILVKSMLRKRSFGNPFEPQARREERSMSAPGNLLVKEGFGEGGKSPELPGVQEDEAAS
As to conditions: CAMKK1; 1 uM; read-out: Percent Control (%). The method in brief:
as §1

For experiment [5], the target named is T5, scanMAX Kinase assay panel (Homo sapiens, UniProt Q9UKI8).
T5 construct: purchased DiscoverX
T5 sequence (Q9UKI8 1-766): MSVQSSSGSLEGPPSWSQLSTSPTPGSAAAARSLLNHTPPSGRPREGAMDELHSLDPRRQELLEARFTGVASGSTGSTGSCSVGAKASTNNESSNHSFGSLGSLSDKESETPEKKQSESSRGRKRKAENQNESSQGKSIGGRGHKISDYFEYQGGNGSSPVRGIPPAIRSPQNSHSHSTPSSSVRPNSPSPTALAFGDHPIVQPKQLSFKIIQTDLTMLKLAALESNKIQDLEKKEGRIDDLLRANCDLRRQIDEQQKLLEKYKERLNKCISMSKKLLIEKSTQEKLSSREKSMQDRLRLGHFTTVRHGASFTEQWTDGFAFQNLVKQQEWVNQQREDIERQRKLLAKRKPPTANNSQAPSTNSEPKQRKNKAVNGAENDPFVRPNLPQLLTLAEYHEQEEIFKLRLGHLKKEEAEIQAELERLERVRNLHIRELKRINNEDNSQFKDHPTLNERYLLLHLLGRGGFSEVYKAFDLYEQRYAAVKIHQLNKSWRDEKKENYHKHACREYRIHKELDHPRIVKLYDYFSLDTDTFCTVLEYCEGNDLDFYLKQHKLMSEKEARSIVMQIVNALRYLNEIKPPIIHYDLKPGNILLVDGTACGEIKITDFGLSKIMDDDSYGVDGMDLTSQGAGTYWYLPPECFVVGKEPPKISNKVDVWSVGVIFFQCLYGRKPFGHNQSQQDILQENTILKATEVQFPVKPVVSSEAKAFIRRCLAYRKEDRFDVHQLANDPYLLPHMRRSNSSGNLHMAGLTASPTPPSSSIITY
As to conditions: TLK1; 1 uM; read-out: Percent Control (%). The method in brief: as §1

Experiment [6] addresses T6, scanMAX Kinase assay panel (Homo sapiens, UniProt Q9BQI3).
T6 construct: purchased DiscoverX
The settings on record: EIF2AK1; 1 uM; read-out: Percent Control (%). Put shortly: as §1

The target in experiment [7] is T7, scanMAX Kinase assay panel (Homo sapiens, UniProt Q86V86).
T7 construct: purchased DiscoverX
As to conditions: PIM3; 1 uM; read-out: Percent Control (%). Put shortly: as §1

Experiment [8] deals with T8, scanMAX Kinase assay panel (Homo sapiens, UniProt P07947).
T8 construct: purchased DiscoverX
T8 sequence (P07947 whole entry): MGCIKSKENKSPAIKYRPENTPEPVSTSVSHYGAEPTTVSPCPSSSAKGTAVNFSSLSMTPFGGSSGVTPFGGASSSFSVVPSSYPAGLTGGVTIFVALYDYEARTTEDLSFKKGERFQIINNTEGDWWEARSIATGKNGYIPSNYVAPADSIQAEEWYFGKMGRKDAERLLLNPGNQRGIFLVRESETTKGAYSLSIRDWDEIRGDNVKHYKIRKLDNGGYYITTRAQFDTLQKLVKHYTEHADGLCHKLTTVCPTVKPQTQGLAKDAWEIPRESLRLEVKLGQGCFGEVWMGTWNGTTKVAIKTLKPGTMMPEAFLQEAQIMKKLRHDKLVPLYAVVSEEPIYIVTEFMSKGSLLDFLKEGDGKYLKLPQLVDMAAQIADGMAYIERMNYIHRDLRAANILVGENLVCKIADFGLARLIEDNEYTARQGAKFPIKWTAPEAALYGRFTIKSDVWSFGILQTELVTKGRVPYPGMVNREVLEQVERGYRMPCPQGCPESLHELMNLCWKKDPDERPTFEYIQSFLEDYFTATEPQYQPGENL
As to conditions: YES; 1 uM; read-out: Percent Control (%). Put shortly:
as §1

The target of experiment [9] is T9, scanMAX Kinase assay panel (Homo sapiens, UniProt Q7KZI7).
T9 construct: purchased DiscoverX
T9 sequence (Q7KZI7 whole entry): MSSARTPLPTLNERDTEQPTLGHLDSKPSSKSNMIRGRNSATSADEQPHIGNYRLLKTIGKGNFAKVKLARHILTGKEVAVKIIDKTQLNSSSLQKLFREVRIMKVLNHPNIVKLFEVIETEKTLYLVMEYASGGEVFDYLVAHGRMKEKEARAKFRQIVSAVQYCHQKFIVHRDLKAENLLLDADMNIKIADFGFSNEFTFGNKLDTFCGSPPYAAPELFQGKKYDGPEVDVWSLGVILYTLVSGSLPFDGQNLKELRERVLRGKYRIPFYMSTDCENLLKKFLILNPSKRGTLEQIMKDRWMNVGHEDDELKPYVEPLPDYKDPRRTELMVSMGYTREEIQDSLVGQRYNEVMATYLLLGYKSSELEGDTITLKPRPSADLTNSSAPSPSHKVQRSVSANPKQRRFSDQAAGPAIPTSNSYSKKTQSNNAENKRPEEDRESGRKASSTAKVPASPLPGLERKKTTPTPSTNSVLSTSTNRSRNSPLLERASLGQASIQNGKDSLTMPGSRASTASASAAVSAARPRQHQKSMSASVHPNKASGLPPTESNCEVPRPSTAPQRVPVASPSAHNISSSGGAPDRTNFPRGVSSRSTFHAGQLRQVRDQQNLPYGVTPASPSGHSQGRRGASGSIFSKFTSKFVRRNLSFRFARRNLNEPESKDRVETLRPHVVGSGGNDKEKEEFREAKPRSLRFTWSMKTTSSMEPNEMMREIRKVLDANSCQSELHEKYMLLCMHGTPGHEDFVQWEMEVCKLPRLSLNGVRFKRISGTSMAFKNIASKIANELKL
As to conditions: MARK2; 1 uM; read-out: Percent Control (%). Put shortly:
as §1

The target of experiment [10] is T10, scanMAX Kinase assay panel (Homo sapiens, UniProt Q9BWU1).
T10 construct: purchased DiscoverX
T10 sequence (Q9BWU1 whole entry): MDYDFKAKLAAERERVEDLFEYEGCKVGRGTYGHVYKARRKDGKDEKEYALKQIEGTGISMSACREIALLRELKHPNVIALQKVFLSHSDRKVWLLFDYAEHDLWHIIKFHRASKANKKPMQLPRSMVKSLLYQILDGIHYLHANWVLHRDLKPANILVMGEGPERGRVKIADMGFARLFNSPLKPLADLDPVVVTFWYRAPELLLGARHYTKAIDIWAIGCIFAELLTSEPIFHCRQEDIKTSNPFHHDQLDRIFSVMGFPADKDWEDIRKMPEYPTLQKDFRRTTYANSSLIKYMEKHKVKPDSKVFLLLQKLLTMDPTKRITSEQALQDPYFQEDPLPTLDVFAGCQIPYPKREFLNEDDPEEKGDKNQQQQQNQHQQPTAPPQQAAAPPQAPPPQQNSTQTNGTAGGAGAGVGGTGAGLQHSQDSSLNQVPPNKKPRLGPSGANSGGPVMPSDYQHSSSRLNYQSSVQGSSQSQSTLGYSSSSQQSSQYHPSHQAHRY
The settings on record: CDK11; 1 uM; read-out: Percent Control (%). Put shortly: as §1

Each structure is given as a SMILES string.

T1 sequence (Q16512 whole entry): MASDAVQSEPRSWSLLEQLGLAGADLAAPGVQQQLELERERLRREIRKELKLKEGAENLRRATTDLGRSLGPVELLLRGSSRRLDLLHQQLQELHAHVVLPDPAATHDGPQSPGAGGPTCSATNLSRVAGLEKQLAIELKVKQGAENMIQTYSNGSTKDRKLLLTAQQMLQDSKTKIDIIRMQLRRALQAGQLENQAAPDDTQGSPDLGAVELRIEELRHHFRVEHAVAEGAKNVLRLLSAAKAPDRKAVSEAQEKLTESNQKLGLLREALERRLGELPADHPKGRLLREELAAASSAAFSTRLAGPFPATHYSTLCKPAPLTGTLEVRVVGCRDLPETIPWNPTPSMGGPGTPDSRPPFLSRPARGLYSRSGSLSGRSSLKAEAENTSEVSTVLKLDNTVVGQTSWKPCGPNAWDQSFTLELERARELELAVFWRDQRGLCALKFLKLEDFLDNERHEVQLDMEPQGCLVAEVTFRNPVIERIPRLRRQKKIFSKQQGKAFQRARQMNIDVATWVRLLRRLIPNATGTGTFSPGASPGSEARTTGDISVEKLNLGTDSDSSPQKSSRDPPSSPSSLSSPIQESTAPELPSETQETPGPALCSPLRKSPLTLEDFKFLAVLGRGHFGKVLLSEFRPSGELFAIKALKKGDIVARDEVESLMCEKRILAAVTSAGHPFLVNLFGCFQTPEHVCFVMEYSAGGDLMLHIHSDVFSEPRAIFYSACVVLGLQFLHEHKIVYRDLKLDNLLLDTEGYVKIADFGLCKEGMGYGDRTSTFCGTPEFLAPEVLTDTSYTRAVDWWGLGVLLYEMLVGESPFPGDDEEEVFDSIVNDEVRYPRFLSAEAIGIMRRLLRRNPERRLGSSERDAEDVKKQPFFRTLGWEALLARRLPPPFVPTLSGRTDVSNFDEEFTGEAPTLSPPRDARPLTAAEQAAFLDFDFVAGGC
T6 sequence (Q9BQI3 whole entry): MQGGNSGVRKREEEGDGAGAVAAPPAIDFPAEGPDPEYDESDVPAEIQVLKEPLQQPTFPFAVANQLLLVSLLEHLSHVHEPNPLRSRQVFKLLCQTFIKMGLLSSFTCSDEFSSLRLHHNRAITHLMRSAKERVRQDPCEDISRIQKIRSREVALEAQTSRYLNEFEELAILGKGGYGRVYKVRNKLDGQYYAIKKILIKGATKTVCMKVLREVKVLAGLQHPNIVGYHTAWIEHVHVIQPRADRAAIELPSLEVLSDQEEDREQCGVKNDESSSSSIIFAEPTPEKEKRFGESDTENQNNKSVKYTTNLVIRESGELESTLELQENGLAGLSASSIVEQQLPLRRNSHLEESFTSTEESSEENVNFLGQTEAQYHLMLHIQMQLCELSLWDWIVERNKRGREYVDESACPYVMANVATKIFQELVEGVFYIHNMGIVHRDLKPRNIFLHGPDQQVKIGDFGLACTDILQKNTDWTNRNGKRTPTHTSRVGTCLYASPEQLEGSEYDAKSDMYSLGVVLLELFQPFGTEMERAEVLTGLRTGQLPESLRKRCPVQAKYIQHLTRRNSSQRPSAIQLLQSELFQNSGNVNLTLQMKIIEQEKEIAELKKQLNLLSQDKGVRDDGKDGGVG

On to `Cc1ccc(C(=O)Nc2ccc(CN3CCN(C)CC3)c(C(F)(F)F)c2)cc1C#Cc1cnc2c(Nc3cnn(C)c3)cccn12` [Example 1, 4-methyl-3-((8-((1-methyl-1H-pyrazol-4-yl)amino)imidazo[1,2-a]pyridin-3-yl)ethynyl)-N-(4-((4-methylpiperazin-1-yl)methyl)-3-(trifluoromethyl)phenyl)benzamide], for which the remaining binding at 1 µM in experiment [1] stood at 78%; in experiment [2], 61%; in [3], 94%; in [4], 23%; in experiment [5], 93%; in experiment [6] it was 67%. Moreover, the remaining binding at 1 µM in [7] came to 88%; in experiment [8], 1%; in experiment [9], 73%; in experiment [10] it was 0%.
For the molecule `Cc1cn(-c2cc(NC(=O)c3ccc(C)c(C#Cc4cnc5c(Nc6cnn(C)c6)cccn45)c3)cc(C(F)(F)F)c2)cn1` [Example 12, 4-methyl-N-(3-(4-methyl-1H-imidazol-1-yl)-5-(trifluoromethyl)phenyl)-3-((8-((1-methyl-1H-pyrazol-4-yl)amino)imidazo[1,2-a]pyridin-3-yl)ethynyl)benzamide], the remaining binding at 1 µM is 82% in [1]; 81% in experiment [2]; 86% in experiment [3]; 81% in [4]; 75% in experiment [5]; 95% in [6]. Moreover, the remaining binding at 1 µM in experiment [7] amounted to 90%; in experiment [8] it was 2%; in [9] it was 99%; in [10], 19%.
For the molecule `Cc1ccc(NC(=O)C2(C(=O)Nc3ccc(F)cc3)CC2)cc1C#Cc1cnc2c(Nc3cnn(C(C)C)c3)cccn12` [Example 78], the remaining binding at 1 µM came out at 83% in experiment [1]; 100% in experiment [2]; 100% in experiment [3]; 100% in [4]; 96% in experiment [5]; 94% in experiment [6]. Further, the remaining binding at 1 µM in [7] was determined as 100%; in [8], 100%; in [9] it was 89%; in experiment [10], 100%.

The values are drawn from patent US10870647B2, “Imidazopyridine derivative, method for preparing same, and pharmaceutical composition containing same as active ingredient for preventing or treating cancer” (DAEGU-GYEONGBUK MEDICAL INNOVATION FOUNDATION, priority 2016, dated 2020).
